Measured values published in patent US8778876B2, “Small-molecule inhibitors of Dengue and West Nile virus proteases” (The Board of Regents of the University of Texas System, priority 2011, dated 2014).
“Also recorded” adds a separate entry of the source. Like-named read-outs stand apart in the source and are kept apart here.

Assays:
DEN2V NS2B-NS3pro = DEN2V NS2B-NS3pro (Dengue virus type 2, UniProt Q91H74); experiment: Steady-state kinetics of inhibitors of DEN2V NS2B-NS3pro (Boc-GRR-AMC substrate, Dynafit); type: biochemical, Dengue 2 virus; conditions: for Mechanism: HTS-identified hits
Chain of DEN2V NS2B-NS3pro (Q91H74 entry or part of it, added parts left off): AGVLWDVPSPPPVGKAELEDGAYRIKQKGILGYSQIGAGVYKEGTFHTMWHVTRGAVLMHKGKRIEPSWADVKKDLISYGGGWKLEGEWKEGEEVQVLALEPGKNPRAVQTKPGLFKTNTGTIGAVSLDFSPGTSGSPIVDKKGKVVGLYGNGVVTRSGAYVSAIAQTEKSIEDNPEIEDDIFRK
Chain of DEN2V NS2B-NS3pro (Q91H74 entry or part of it partner, added parts left off): as the sequence (Q91H74 entry or part of it, added parts left off) above

WNV NS2B-NS3pro = WNV NS2B-NS3pro (West Nile virus, UniProt P06935); experiment: Steady-state kinetics of inhibitors of WNV NS2B-NS3pro; type: biochemical
Chain of WNV NS2B-NS3pro (P06935 1502-1679 limits assumed): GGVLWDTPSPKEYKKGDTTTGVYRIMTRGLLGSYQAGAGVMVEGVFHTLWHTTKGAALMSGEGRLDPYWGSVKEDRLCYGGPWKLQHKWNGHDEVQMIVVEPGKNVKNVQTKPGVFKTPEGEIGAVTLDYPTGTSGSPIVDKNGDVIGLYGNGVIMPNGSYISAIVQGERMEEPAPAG
Chain of WNV NS2B-NS3pro (P06935 1424-1463 partner limits assumed): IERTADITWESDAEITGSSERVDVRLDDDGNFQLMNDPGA

physchem = conditions: pH 9, aqueous with cosolvent or surfactant or cyclodextrin, kinetic from dmso stock
[1] = target: T1, Bovine pancreatic trypsin (Bos taurus, UniProt P00760); experiment: biochemical; type: biochemical
T1 construct: purchased Sigma Aldrich; host or cells: bovine pancreas
T1 sequence (P00760 24-246): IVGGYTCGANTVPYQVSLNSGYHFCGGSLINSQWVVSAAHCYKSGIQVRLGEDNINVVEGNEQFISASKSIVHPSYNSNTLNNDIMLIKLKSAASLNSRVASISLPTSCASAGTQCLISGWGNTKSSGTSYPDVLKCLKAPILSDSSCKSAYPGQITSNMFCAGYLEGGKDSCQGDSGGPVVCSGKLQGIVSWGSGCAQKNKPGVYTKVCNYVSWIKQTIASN

[2] = Ki1 (from biochemical protease inihibition experiments) Dengue 2 virus NS2B-NS3
[3] = Ki1 (from biochemical protease inihibition experiments) West Nile virus NS2B-NS
[4] = Table 1, DEN2V NS2B-NS3pro, read-out: Ki1
[5] = Table 1, DEN2V NS2B-NS3pro, read-out: Ki2
[6] = Table 2, WNV NS2B-NS3pro, read-out: Ki1
[7] = Table 2, WNV NS2B-NS3pro, read-out: Ki2
[8] = DEN2V NS2B-NS3 Ki1, second series analogs
[9] = DEN2V NS2B-NS3 Ki2, second series analogs

## O=c1ccc2[n+]([O-])c3ccc(O)cc3oc-2c1 [Compound 9A3]
DEN2V NS2B-NS3pro; [2]
  Ki: 82 µM
WNV NS2B-NS3pro; [3]
  Ki: 72 µM

## CN(C)c1ccc2nc3ccc(=O)cc-3sc2c1 [Compound 9A4]
DEN2V NS2B-NS3pro; [2]
  Ki: 359 µM
WNV NS2B-NS3pro; [3]
  Ki: 431 µM

## CN/N=C1/c2ccccc2C(=O)c2c(O)ccc(O)c21 [Compound 6A48]
physchem
  solubility: > 10 µM

## O=c1[nH]c2cc([N+](=O)[O-])c([N+](=O)[O-])cc2[nH]c1=O [Compound 6A29]
physchem
  solubility: < 10 µM

## Cc1cc(C(C)(C)CC(C)(C)C)ccc1OCCOCC[N+](C)(C)Cc1ccccc1.[Cl-] [MS22, Methylbenzethonium chloride, reference compound]
DEN2V NS2B-NS3pro; Table 1, DEN2V NS2B-NS3pro
  Mechanism: Mixed
DEN2V NS2B-NS3pro; [4]
  Ki: 322 ± 81 µM
DEN2V NS2B-NS3pro; [5]
  Ki: 160 ± 39 µM
WNV NS2B-NS3pro; Table 2, WNV NS2B-NS3pro
  Mechanism: Mixed
WNV NS2B-NS3pro; [6]
  Ki: 141 ± 20 µM
WNV NS2B-NS3pro; [7]
  Ki: 307 ± 80 µM

## Nc1c(Br)cc(O)c2c1C(=O)c1ccccc1C2=O [Compound 6A53]
physchem
  solubility: < 10 µM

## N=C(N)c1ccccc1 [Benzamidine, reference compound]
[1]
  Mechanism (trypsin inhibition): competitive trypsin inhibitors

## CCN(CC)c1ccc2nc3c4ccccc4c(=O)cc-3oc2c1 [Compound 9A6]
DEN2V NS2B-NS3pro; [2]
  Ki: 53 µM
WNV NS2B-NS3pro; [3]
  Ki: 47 µM

## CO[C@H]1C[C@H](O[C@@H]2/C(C)=C/C[C@@H]3C[C@@H](C[C@]4(CC[C@H](C)[C@@H](C5CCCCC5)O4)O3)OC(=O)[C@@H]3C=C(C)/C(=N/O)[C@H]4OC/C(=C\C=C\[C@@H]2C)[C@]43O)O[C@@H](C)[C@@H]1O [MS24, Selamectin, reference compound]
DEN2V NS2B-NS3pro; Ki1, Table 1, DEN2V NS2B-NS3pro
  Ki: 63 ± 18 µM
DEN2V NS2B-NS3pro; Ki2, Table 1, DEN2V NS2B-NS3pro
  Ki: 45 ± 8 µM
DEN2V NS2B-NS3pro; Table 1, DEN2V NS2B-NS3pro
  Mechanism: Mixed
WNV NS2B-NS3pro; Ki1, Table 2, WNV NS2B-NS3pro
  Ki: 15 ± 9 µM
WNV NS2B-NS3pro; Ki2, Table 2, WNV NS2B-NS3pro
  Ki: 28 ± 6 µM
WNV NS2B-NS3pro; Table 2, WNV NS2B-NS3pro
  Mechanism: Mixed

## O=[N+]([O-])c1ccc(OP(=O)([O-])Oc2ccc([N+](=O)[O-])cc2)cc1.[Na+] [Compound 6A24]
physchem
  solubility: < 10 µM

## O=C1c2cccc(O)c2C(=O)c2cccc(O)c21 [Compound 6A30]
physchem
  solubility: < 10 µM

## O=Cc1ccc2c(c1)C(=O)c1ccccc1C2=O [Compound 6A50]
physchem
  solubility: > 10 µM

## Oc1ccc2cc3ccc(O)cc3c(O)c2c1 [Compound 6A60]
DEN2V NS2B-NS3pro; [8]
  Ki: 7 ± 5 µM
DEN2V NS2B-NS3pro; [9]
  Ki: 3 ± 1 µM
DEN2V NS2B-NS3pro; [2]
  Ki: 7 µM
DEN2V NS2B-NS3pro; second series analogs
  DEN2V NS2B-NS3 Ki1: lowest Ki1 of all anthracene-based analogs
  DEN2V NS2B-NS3 Mechanism: Mixed
WNV NS2B-NS3pro; [3]
  Ki: 11 µM
[1]
  Trypsin Mechanism: did not inhibit trypsin cleavage activity; also recorded: No inhibition
physchem
  solubility: > 10 µM

## Nc1ccc(O)c2ccccc12 [Compound 6A51]
physchem
  solubility: > 10 µM

## CC[C@H](C)[C@H]1O[C@]2(CC[C@@H]1C)C[C@@H]1C[C@@H](C/C=C(\C)[C@@H](O[C@H]3C[C@H](OC)[C@@H](O[C@H]4C[C@H](OC)[C@@H](O)[C@H](C)O4)[C@H](C)O3)[C@@H](C)/C=C/C=C3\CO[C@@H]4[C@H](O)C(C)=C[C@@H](C(=O)O1)[C@]34O)O2 [MS21, Ivermectin, reference compound]
DEN2V NS2B-NS3pro; Table 1, DEN2V NS2B-NS3pro
  Mechanism: Mixed
DEN2V NS2B-NS3pro; [4]
  Ki: 79 ± 21 µM
DEN2V NS2B-NS3pro; [5]
  Ki: 35 ± 4 µM
WNV NS2B-NS3pro; Table 2, WNV NS2B-NS3pro
  Mechanism: Mixed
WNV NS2B-NS3pro; [6]
  Ki: 55 ± 18 µM
WNV NS2B-NS3pro; [7]
  Ki: 16 ± 4 µM

## O=C1c2ccc(O)c(O)c2C(=O)c2c(O)ccc(O)c21 [Compound 6A61]
DEN2V NS2B-NS3pro; [8]
  Ki: 72 ± 15 µM
DEN2V NS2B-NS3pro; [9]
  Ki: 10 ± 2 µM
DEN2V NS2B-NS3pro; [2]
  Ki: 72 µM
DEN2V NS2B-NS3pro; second series analogs
  DEN2V NS2B-NS3 Mechanism: Mixed
WNV NS2B-NS3pro; [3]
  Ki: 31 µM
[1]
  Trypsin Mechanism: did not inhibit trypsin; also recorded: No inhibition
physchem
  solubility: > 10 µM

## Nc1cccc2c1C(=O)c1ccccc1C2=O [Compound 6A25]
physchem
  solubility: < 10 µM

## Nc1ccc2c(c1[N+](=O)[O-])C(=O)c1ccccc1C2=O [Compound 6A35]
physchem
  solubility: < 10 µM

## Cc1ccc2c(c1)C(=O)c1ccccc1C2=O [Compound 6A28]
physchem
  solubility: < 10 µM

## O=[N+]([O-])c1cc([N+](=O)[O-])c2ccccc2c1[O-].[Na+] [Compound 6A40]
physchem
  solubility: < 10 µM

## COc1ccc(N)c2c1C(=O)c1ccccc1C2=O [Compound 6A46]
physchem
  solubility: > 10 µM

## Nc1ccc2c(c1)C(=O)c1ccccc1C2=O [Compound 6A27]
physchem
  solubility: < 10 µM

## Cc1cccc2c1C(=O)c1cccc([N+](=O)[O-])c1C2=O [Compound 6A41]
physchem
  solubility: < 10 µM
